Measurements: patent publication US9247759B2, “Identification of human T2R receptors that respond to bitter compounds that elicit the bitter taste in compositions, and the use thereof in assays to identify compounds that inhibit (block) bitter taste in compositions and use thereof” (SENOMYX, INC., priority 2007, dated 2016)
pIC50: −log10 of the molar value. Where two headings read alike, the source gives them in different places.

How the values were obtained:
[1] = target: T1, hT2R14 (Homo sapiens (Human), UniProt Q9NYV8); assay: hT2R14 antagonist high-throughput FLIPR assay, stable cell line with G16g44, agonist aristolochic acid; format: cell-based
T1 sequence (Q9NYV8 whole entry): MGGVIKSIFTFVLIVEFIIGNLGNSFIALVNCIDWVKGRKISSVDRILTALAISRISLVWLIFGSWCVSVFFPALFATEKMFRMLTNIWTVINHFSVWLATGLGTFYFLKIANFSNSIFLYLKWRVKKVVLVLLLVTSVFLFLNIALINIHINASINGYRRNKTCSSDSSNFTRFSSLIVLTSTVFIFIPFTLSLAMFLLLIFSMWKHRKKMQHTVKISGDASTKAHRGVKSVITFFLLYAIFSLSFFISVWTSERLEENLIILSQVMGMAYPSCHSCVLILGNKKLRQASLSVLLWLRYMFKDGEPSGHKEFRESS
Procedure, shortened: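 HEK293 cells stably expressing hT2R14 with chimeric G16g44 were stimulated with aristolochic acid (3 μM), giving 70-80% of maximal receptor activity. Test compounds were added together with the agonist, and antagonism was read as fluorescent calcium signal on FLIPR.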

[2] = target: hT2R3 (Homo sapiens (Human), UniProt Q9NYW6); assay: hT2R panel inhibition, transient HEK293 G16g44, agonist Chloroquine pH6.5 50 μM; format: cell-based; conditions: HEK293, compound at 25 μM; receptor activated to EC80 with the corresponding agonist; read-out: screening result against bitter receptor 3
hT2R3, sequence (Q9NYW6 whole entry): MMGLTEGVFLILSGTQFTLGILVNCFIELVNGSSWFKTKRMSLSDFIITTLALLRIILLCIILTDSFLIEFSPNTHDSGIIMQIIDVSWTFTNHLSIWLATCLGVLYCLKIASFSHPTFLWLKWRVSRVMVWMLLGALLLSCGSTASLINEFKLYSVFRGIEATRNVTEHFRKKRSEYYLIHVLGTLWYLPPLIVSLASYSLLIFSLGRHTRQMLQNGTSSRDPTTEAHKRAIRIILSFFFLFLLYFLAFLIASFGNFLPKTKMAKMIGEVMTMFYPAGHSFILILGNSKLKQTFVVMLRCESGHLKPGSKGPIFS
Procedure, shortened: (§1)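 Each of 22 human bitter receptors was expressed individually by transient transfection in cells stably carrying the promiscuous G protein. Agonists were applied at EC80, and inhibition was scored as the drop in receptor activity with the test compound present.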

[3] = target: hT2R4 (Homo sapiens (Human), UniProt Q9NYW5); assay: hT2R panel inhibition, transient HEK293 G16g44, agonist Chloroquine pH6.5 5 mM; format: cell-based; conditions: HEK293, compound at 25 μM; receptor activated to EC80 with the corresponding agonist; class symbols; read-out: screening result against bitter receptor 4
hT2R4, sequence (Q9NYW5 whole entry): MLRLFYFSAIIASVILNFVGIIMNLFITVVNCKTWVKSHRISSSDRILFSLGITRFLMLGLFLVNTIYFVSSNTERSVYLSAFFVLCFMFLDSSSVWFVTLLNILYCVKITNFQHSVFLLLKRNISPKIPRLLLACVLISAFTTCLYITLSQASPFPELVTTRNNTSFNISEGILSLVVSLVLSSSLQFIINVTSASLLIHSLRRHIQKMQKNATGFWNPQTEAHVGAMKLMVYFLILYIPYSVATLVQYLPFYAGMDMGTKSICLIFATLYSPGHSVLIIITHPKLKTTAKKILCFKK
Procedure, shortened: as §1

[4] = target: hT2R5 (Homo sapiens (Human), UniProt Q9NYW4); assay: hT2R panel inhibition, transient HEK293 G16g44, agonist Picoline 10 mM; format: cell-based; conditions: HEK293, compound at 25 μM; receptor activated to EC80 with the corresponding agonist; read-out: screening result against bitter receptor 5
hT2R5, sequence (Q9NYW4 whole entry): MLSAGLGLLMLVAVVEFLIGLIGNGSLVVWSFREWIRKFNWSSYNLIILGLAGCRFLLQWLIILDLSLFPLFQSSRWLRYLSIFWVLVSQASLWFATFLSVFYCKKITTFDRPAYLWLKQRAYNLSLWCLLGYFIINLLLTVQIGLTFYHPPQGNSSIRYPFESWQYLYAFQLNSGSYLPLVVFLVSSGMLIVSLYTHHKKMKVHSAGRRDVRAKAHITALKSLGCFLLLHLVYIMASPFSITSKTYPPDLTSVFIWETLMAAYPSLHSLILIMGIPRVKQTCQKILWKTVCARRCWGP
Procedure, shortened: as §1

[5] = target: hT2R7 (Homo sapiens (Human), UniProt Q9NYW3); assay: hT2R panel inhibition, transient HEK293 G16g44, agonist Chloroquine pH6.5 10 mM; format: cell-based; conditions: HEK293, compound at 25 μM; receptor activated to EC80 with the corresponding agonist; read-out: screening result against bitter receptor 7
hT2R7, sequence (Q9NYW3 whole entry): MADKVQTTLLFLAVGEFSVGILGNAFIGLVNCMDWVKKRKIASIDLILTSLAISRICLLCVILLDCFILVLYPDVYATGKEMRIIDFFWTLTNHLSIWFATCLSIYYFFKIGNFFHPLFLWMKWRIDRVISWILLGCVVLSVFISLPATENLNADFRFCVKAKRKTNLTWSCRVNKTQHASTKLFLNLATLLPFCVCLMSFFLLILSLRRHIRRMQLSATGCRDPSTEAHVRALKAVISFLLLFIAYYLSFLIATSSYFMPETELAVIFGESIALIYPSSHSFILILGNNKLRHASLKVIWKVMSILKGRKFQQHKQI
Procedure, shortened: as §1

[6] = target: hT2R9 (Homo sapiens (Human), UniProt Q9NYW1); assay: hT2R panel inhibition, transient HEK293 G16g44, agonist Ofloxacin 1 mM; format: cell-based; conditions: HEK293, compound at 25 μM; receptor activated to EC80 with the corresponding agonist; read-out: screening result against bitter receptor 9
hT2R9, sequence (Q9NYW1 whole entry): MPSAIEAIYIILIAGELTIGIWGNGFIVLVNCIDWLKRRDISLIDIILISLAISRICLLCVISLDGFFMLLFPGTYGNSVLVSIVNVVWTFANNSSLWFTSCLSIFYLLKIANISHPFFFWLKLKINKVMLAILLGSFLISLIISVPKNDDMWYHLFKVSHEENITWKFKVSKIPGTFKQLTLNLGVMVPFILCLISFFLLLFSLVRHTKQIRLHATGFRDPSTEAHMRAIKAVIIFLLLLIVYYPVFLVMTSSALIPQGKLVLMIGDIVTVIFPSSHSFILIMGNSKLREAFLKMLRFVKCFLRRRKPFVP
Experimental: Specifically, in order to evaluate the inhibitory selectivity of the Compound C compound, this compound was tested against 22 human T2Rs which were deorphaned by Senomyx. These receptors and the bitter ligands that activate these human T2Rs are reported in earlier patent applications which are incorporated by reference herein. These 22 human T2Rs are hT2R1, 3, 4, 5, 7, 8, 9, 10, 13, 14, 16, 44, 51, 54, 55, 61, 63, 64, 65, 67, 71 and 75. The amino acid and nucleic acid sequences of all of these T2Rs may be found in these earlier patent applications. These human T2Rs were each individually transiently transfected into HEK293 cells that stably express the promiscuous G protein G16g44 and functional assays were effected using these receptors as disclosed in these same patent applications. […] The ligands were used at EC80 concentration levels. The list of bitter ligands utilized and the tested ligand concentrations are contained in Table 5 of this example.
Relating to the foregoing, FIG. 5 contains experimental results wherein Compound C was tested with different agonist compounds. The inhibition activity is represented by the reduction of receptor activity in the presence of Compound C. […] These 13 hT2Rs are hT2R3, 7, 10, 14, 16, 44, 51, 55, 61, 63, 64, 65, and 71.

[7] = target: hT2R10 (Homo sapiens (Human), UniProt Q9NYW0); assay: hT2R panel inhibition, transient HEK293 G16g44, agonist Strychnine 50 μM; format: cell-based; conditions: HEK293, read-out: screening result against bitter receptor 10, compound at 25 μM; receptor activated to EC80 with the corresponding agonist
hT2R10, sequence (Q9NYW0 whole entry): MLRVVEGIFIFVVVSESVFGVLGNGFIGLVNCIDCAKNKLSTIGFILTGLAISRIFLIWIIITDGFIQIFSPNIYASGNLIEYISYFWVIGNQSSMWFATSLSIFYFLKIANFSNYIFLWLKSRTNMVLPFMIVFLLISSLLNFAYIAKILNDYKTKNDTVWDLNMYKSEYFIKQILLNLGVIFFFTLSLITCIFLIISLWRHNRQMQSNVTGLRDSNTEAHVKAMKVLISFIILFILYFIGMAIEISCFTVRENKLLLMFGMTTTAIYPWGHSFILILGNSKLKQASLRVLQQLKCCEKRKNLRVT

[8] = target: T1, hT2R14; assay: hT2R panel inhibition, transient HEK293 G16g44, agonist Aristolochic Acid 2 μM; format: cell-based; conditions: HEK293, compound at 25 μM; receptor activated to EC80 with the corresponding agonist; read-out: screening result against bitter receptor 14
Procedure, shortened: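 Each hT2R was transiently transfected into HEK293 cells stably expressing G16g44 and assayed functionally for inhibition of agonist response. Agonists were applied at EC80: andrographolide at 0.5 mM for hT2R8 and aristolochic acid at 2 μM for hT2R14.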

[9] = target: hT2R16 (Homo sapiens (Human), UniProt Q9NYV7); assay: hT2R panel inhibition, transient HEK293 G16g44, agonist Salicin 1 mM; format: cell-based; conditions: HEK293, compound at 25 μM; receptor activated to EC80 with the corresponding agonist; read-out: screening result against bitter receptor 16
hT2R16, sequence (Q9NYV7 whole entry): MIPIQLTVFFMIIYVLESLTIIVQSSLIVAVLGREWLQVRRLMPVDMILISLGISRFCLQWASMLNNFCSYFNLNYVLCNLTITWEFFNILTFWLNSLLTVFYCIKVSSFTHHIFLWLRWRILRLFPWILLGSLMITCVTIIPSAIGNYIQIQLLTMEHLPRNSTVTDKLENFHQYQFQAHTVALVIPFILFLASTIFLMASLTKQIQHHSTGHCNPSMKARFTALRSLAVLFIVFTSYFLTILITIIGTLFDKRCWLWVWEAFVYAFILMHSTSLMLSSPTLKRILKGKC
Procedure, shortened: as §1

[10] = tested on: hT2R44; assay: hT2R panel inhibition, transient HEK293 G16g44, agonist Denatonium 0.5 μM; format: cell-based, human; conditions: compound at 25 μM; receptor activated to EC80 with the corresponding agonist
Procedure, shortened: as §1

[11] = tested on: hT2R55; assay: hT2R panel inhibition, transient HEK293 G16g44, agonist Cinchonine 150 μM; format: cell-based, human; conditions: compound at 25 μM; receptor activated to EC80 with the corresponding agonist
Procedure, shortened: as §1

[12] = target: hT2R61 (Homo sapiens (Human), UniProt P59537); assay: hT2R panel inhibition, transient HEK293 G16g44, agonist Aristolochic Acid 25 nM; format: cell-based; conditions: HEK293, compound at 25 μM; receptor activated to EC80 with the corresponding agonist; read-out: screening result against bitter receptor 61
hT2R61, sequence (P59537 whole entry): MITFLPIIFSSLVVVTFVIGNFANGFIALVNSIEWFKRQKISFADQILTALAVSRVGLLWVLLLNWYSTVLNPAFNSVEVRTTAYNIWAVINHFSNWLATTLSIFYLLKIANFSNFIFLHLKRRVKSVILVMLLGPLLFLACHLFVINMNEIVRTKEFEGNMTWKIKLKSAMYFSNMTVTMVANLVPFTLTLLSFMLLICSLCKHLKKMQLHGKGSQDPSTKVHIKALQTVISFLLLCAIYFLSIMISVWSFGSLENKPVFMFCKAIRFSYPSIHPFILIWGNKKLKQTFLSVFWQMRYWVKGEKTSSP
Procedure, shortened: as §1

[13] = tested on: hT2R63; assay: hT2R panel inhibition, transient HEK293 G16g44, agonist Caffeine 1 mM or Andrographolide 100 μM; format: cell-based, human; conditions: compound at 25 μM; receptor activated to EC80 with the corresponding agonist
Procedure, shortened: as §1

[14] = target: hT2R64 (Homo sapiens (Human), UniProt P59538); assay: hT2R panel inhibition, transient HEK293 G16g44, agonist Aristolochic Acid 1 μM; format: cell-based; conditions: HEK293, compound at 25 μM; receptor activated to EC80 with the corresponding agonist; read-out: screening result against bitter receptor 64
hT2R64, sequence (P59538 whole entry): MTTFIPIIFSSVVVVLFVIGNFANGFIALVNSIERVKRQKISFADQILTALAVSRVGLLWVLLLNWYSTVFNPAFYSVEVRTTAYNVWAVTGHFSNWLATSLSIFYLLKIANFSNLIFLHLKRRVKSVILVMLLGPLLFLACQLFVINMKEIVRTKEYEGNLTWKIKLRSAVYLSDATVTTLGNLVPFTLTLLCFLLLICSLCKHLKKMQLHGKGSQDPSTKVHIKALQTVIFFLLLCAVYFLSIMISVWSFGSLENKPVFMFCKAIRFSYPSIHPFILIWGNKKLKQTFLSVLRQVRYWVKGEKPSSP
Procedure, shortened: as §1

[15] = tested on: hT2R65; assay: hT2R panel inhibition, transient HEK293 G16g44, agonist Oleuropein 1 mM; format: cell-based, human; conditions: compound at 25 μM; receptor activated to EC80 with the corresponding agonist
Procedure, shortened: as §1

[16] = tested on: hT2R67; assay: hT2R panel inhibition, transient HEK293 G16g44, agonist Andrographolide 5 μM; format: cell-based, human; conditions: compound at 25 μM; receptor activated to EC80 with the corresponding agonist
Procedure, shortened: as §1

[17] = target: hT2R71 (Homo sapiens (Human), UniProt P59536); assay: hT2R panel inhibition, transient HEK293 G16g44, agonist Picric Acid 10 μM; format: cell-based; conditions: HEK293, compound at 25 μM; receptor activated to EC80 with the corresponding agonist; read-out: screening result against bitter receptor 71
hT2R71, sequence (P59536 whole entry): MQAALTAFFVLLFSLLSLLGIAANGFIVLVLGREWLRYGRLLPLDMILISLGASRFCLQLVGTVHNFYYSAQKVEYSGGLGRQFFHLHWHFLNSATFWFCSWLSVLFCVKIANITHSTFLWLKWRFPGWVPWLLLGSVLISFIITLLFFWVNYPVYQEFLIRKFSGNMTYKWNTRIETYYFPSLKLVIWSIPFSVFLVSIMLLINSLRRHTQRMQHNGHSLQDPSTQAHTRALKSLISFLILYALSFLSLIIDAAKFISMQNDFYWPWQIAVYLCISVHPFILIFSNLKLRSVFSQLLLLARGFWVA
Procedure, shortened: as §1

[18] = target: hT2R75 (Homo sapiens (Human), UniProt P59540); assay: hT2R panel inhibition, transient HEK293 G16g44, agonist Strychnine 1 μM; format: cell-based; conditions: HEK293, read-out: screening result against bitter receptor 75, compound at 25 μM; receptor activated to EC80 with the corresponding agonist
hT2R75, sequence (P59540 whole entry): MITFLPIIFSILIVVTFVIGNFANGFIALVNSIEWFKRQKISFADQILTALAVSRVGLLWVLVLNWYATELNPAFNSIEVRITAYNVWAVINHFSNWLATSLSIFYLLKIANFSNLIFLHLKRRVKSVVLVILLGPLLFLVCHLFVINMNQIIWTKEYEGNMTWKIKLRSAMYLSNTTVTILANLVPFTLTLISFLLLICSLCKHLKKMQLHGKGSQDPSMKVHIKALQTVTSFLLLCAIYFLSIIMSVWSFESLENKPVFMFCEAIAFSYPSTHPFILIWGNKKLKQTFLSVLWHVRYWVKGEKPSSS

[19] = target: hT2R51 (Homo sapiens (Human), UniProt P59533); assay: hT2R panel inhibition, transient HEK293 G16g44, agonist Prop 2.5 μM; format: cell-based; conditions: HEK293, compound at 25 μM; receptor activated to EC80 with the corresponding agonist; read-out: screening result against bitter receptor 51
hT2R51, sequence (P59533 whole entry): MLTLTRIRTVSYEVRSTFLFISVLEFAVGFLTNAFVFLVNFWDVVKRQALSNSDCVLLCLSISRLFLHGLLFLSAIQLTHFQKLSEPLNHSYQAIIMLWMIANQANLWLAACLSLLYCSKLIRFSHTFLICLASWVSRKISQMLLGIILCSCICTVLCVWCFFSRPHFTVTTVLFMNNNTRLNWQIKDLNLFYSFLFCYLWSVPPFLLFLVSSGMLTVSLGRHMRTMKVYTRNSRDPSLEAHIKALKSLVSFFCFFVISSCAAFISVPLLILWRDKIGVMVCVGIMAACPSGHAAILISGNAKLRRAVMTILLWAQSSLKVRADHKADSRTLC
Procedure, shortened: as §1

[20] = tested on: hT2R54; assay: hT2R panel inhibition, transient HEK293 G16g44, agonist Ranitidine 5 mM; format: cell-based, human; conditions: compound at 25 μM; receptor activated to EC80 with the corresponding agonist
Procedure, shortened: as §1

[21] = read-out: IC50 on hT2R14 bitter receptor

SMILES	pIC50 [1, 21]	inhibition at 25 µM [2] [%]	inhibition at 25 µM [3] [%]	inhibition at 25 µM [4] [%]	inhibition at 25 µM [5] [%]	inhibition at 25 µM [6] [%]	inhibition at 25 µM [7] [%]	inhibition at 25 µM [8] [%]	inhibition at 25 µM [9] [%]	screening result against bitter receptor 44 [10]	screening result against bitter receptor 55 [11]	inhibition at 25 µM [12] [%]	screening result against bitter receptor 63 [13]	inhibition at 25 µM [14] [%]	screening result against bitter receptor 65 [15]	screening result against bitter receptor 67 [16]	inhibition at 25 µM [17] [%]	inhibition at 25 µM [18] [%]	inhibition at 25 µM [19] [%]	screening result against bitter receptor 54 [20]	further results
Cc1ccc(S(=O)(=O)N(Cc2ccccc2)CC2CCC(C(=O)O)CC2)cc1 (centres unmarked) [Example 5-11, 4-((N-benzyl-4-methylphenylsulfonamido)methyl)cyclohexane-carboxylic acid]	7.85	60 to 80	60 to 80	20 to 40	40 to 60	20 to 40	40 to 60	> 80	40 to 60	+++ (60% to 80% inhibition = +++)	++++ (80% or greater inhibition = ++++)	> 80	+++ (60% to 80% inhibition = +++)	40 to 60	+ (20% to 40% inhibition = +)	+ (20% to 40% inhibition = +)	60 to 80	40 to 60	–	–	–
COc1ccc(CN(Cc2ccccc2)S(=O)(=O)Cc2ccc(C(=O)O)cc2)cc1 [Example 5-16, 4-((N-benzyl-N-(4-methoxybenzyl)sulfamoyl)methyl)benzoic acid]	–	40 to 60	20 to 40	20 to 40	20 to 40	20 to 40	20 to 40	20 to 40	20 to 40	+++ (60% to 80% inhibition = +++)	++++ (80% or greater inhibition = ++++)	60 to 80	–	> 80	+ (20% to 40% inhibition = +)	–	40 to 60	20 to 40	–	–	–
COc1ccc(CN(Cc2ccccc2C#N)S(=O)(=O)c2ccc(C(=O)O)cc2)cc1 [Example 5-25, 4-(N-(2-cyanobenzyl)-N-(4-methoxybenzyl)sulfamoyl)benzoic acid]	5.34	60 to 80	20 to 40	40 to 60	40 to 60	20 to 40	60 to 80	> 80	40 to 60	+++ (60% to 80% inhibition = +++)	+++ (60% to 80% inhibition = +++)	–	–	–	++++ (80% or greater inhibition = ++++)	++ (40% to 60% inhibition = ++)	–	–	20 to 40	+++ (60% to 80% inhibition = +++)	–
COc1ccccc1CN(Cc1ccc(C(=O)O)cc1)S(=O)(=O)c1ccccc1 [Example 5-100, 4-((N-(2-methoxybenzyl)phenylsulfonamido)methyl) benzoic acid]	–	20 to 40	40 to 60	20 to 40	20 to 40	20 to 40	20 to 40	40 to 60	20 to 40	+++ (60% to 80% inhibition = +++)	+++ (60% to 80% inhibition = +++)	60 to 80	+ (20% to 40% inhibition = +)	> 80	++ (40% to 60% inhibition = ++)	–	60 to 80	20 to 40	–	+ (20% to 40% inhibition = +)	pIC50 ([1]; Table C, read-out: hT2R14 IC50): 5.89
COc1cccc(CN(Cc2ccc(C(=O)O)cc2)S(=O)(=O)c2ccccc2)c1 [Example 5-101, 4-((N-(3-methoxybenzyl)phenylsulfonamido)methyl) benzoic acid]	–	60 to 80	40 to 60	40 to 60	60 to 80	20 to 40	60 to 80	> 80	40 to 60	+++ (60% to 80% inhibition = +++)	+++ (60% to 80% inhibition = +++)	> 80	+++ (60% to 80% inhibition = +++)	> 80	+++ (60% to 80% inhibition = +++)	++ (40% to 60% inhibition = ++)	60 to 80	40 to 60	40 to 60	++ (40% to 60% inhibition = ++)	pIC50 ([1]; Table C, read-out: hT2R14 IC50): 6.46
